In the NIST ThermoML archive (doi:10.1021/acs.jced.9b00507):
± gives the expanded uncertainty stated by the source.

Assay: xn = mol fraction of the nth substance listed
Conditions: 100 kPa, Liquid; for mass density: Vibrating tube method; for viscosity: Concentric cylinders viscometry

CCCCCCn1cc[n+](C)c1.O=[N+]([O-])[O-] [1-hexyl-3-methylimidazolium nitrate] + CCCCCCCCCCO
Conditions	mass density, 308.15 K [kg/m3]	mass density, 313.15 K [kg/m3]	mass density, 318.15 K [kg/m3]	mass density, 323.15 K [kg/m3]	viscosity, 313.15 K [mPa·s]	viscosity, 318.15 K [mPa·s]	viscosity, 323.15 K [mPa·s]
x1 = 0.0818	845 ± 1.2	841.4 ± 1.2	837.9 ± 1.2	834.4 ± 1.2	7.41 ± 0.59	5.98 ± 0.48	4.95 ± 0.4
x1 = 0.1583	868.7 ± 1.2	865.1 ± 1.2	861.6 ± 1.2	858 ± 1.2	8.15 ± 0.65	6.21 ± 0.5	5.14 ± 0.41
x1 = 0.2414	894.2 ± 1.2	890.6 ± 1.2	887 ± 1.2	883.4 ± 1.2	8.97 ± 0.72	6.44 ± 0.52	5.28 ± 0.42
x1 = 0.3482	926.4 ± 1.2	922.8 ± 1.2	919.2 ± 1.2	915.6 ± 1.2	10.16 ± 0.82	7.1 ± 0.57	5.6 ± 0.45
x1 = 0.4414	954.2 ± 1.2	950.5 ± 1.2	946.9 ± 1.2	943.3 ± 1.2	11.94 ± 0.96	8.12 ± 0.65	6.07 ± 0.49
x1 = 0.5593	988.6 ± 1.2	984.9 ± 1.2	981.4 ± 1.2	977.8 ± 1.2	16.52 ± 1.3	9.93 ± 0.8	7.03 ± 0.57
x1 = 0.6481	1014.2 ± 1.2	1010.5 ± 1.2	1007 ± 1.2	1003.5 ± 1.2	23.5 ± 1.9	13.43 ± 1.1	9.04 ± 0.73
x1 = 0.7414	1040.5 ± 1.3	1036.9 ± 1.3	1033.5 ± 1.3	1030 ± 1.3	35.97 ± 2.9	22.34 ± 1.8	15.67 ± 1.3
x1 = 0.8496	1070.5 ± 1.3	1067 ± 1.3	1063.7 ± 1.3	1060.4 ± 1.3	67.47 ± 5.5	47.97 ± 3.9	36.3 ± 3
x1 = 0.9402	1095.1 ± 1.4	1091.7 ± 1.4	1088.5 ± 1.4	1085.3 ± 1.4	123.98 ± 10	92.14 ± 7.6	73.7 ± 6
x1 = 1	1111.1 ± 1.4	1107.8 ± 1.4	1104.7 ± 1.4	1101.6 ± 1.4	185.67 ± 15	140.18 ± 11	110.94 ± 9
